Results reported in US20110224213A1, “Use of Glutaric Acid Derivatives or the Pharmaceutically Acceptable Salts Thereof as Anti-Arrhythmic Agents” (priority 2008, published 2011).
Read-outs that look alike come from different tables or passages of the source. Marks after values point to notes of the source that are not given here.

What was measured:
[1] = system: adrenal arrhythmia in mice; format: in vivo; conditions: mice, introduced internally
[2] = system: aconitic arrhythmia in mice; assay: animal or person; format: in vivo
Experimental: Arrhythmia was reproduced according to the method of Ju. I. Vikhlyayev and N. V. Kaverina (1958) [Kaverina N. V., Berdyaev S. Ju., Kuschuk E. P., Paskhina O. E. Methodical indications in respect to a study of the anti-arrhythmic activity of new pharmacological substances. Manual on experimental (pre-clinical) study of new pharmacological substances. Edited by V. P. Fisenko.—Moscow. 2000. Page 210]. Aconitine nitrate was administered to the animals in a dose of 50 μg/kg intravenously.
(§1) This model makes it possible to assess the scope of the therapeutic action of the presented compounds and the N-succinyl-D,L-tryptophane dipotassium salt. Assessment of the scope of the therapeutic action was carried out in accordance with the value of the anti-arrhythmic index (AAI), determined as the ratio LD50 upon the oral method of administering to ED50 on an aconitic model of arrhythmia.

[3] = LD50 upon oral administration in mice; conditions: mouse, in vivo, per/os
Experimental: as §1

[4] = system: occlusive arrhythmia in cats; assay: Early occlusive arrhythmia in cats (coronary artery ligation); conditions: for Animals died in group / Animals with ventricular arrhythmia (%) / Number of animals with ventricular arrhythmia / Time of occurrence of arrhythmia: intravenously

O=C(O)CCCC(=O)N[C@@H](Cc1c[nH]cn1)C(=O)O [Compound III, N^α-glutaryl-L-histidine]
effect on life span of the test animals ([1]; 0.05 and 0.5 mg/kg): effectively increased the life span | Animals lethal (%) ([1]; dose 0.05 mg/kg): (86%) | Animals with AV blockage (%) ([1]; dose 0.05 mg/kg): (29%) | Animals with ventricular arrhythmia (%) ([1]; dose 0.05 mg/kg): (43%) | Lifetime ([1]; dose 0.05 mg/kg): 32 ± 7 min | Number of animals in groups lethal ([1]; dose 0.05 mg/kg): 12 | Number of animals in groups with AV blockage ([1]; dose 0.05 mg/kg): 4* | Number of animals in groups with ventricular arrhythmia ([1]; dose 0.05 mg/kg): 6* | Animals lethal (%) ([1]; dose 0.5 mg/kg): (79%) | Animals with AV blockage (%) ([1]; dose 0.5 mg/kg): (21%) | Animals with ventricular arrhythmia (%) ([1]; dose 0.5 mg/kg): (29%) | Lifetime ([1]; dose 0.5 mg/kg): 33 ± 5 min | Number of animals in groups lethal ([1]; dose 0.5 mg/kg): 11 | Number of animals in groups with AV blockage ([1]; dose 0.5 mg/kg): 3* | Number of animals in groups with ventricular arrhythmia ([1]; dose 0.5 mg/kg): 4* | ED50 ([2]; Mus musculus, iv): 0.185 ± 0.083 mg/kg | prevention of atrioventricular heart arrhythmia caused by aconitine nitrate ([2]; mice, administration internally): effectively prevents atrioventricular heart arrhythmia | LD50 [3]: 4500 mg/kg | effect on experimental lethality ([4]; 23% lethality in the control): prevented experimental lethality | Animals died in group ([4]; dose 0.05 mg/kg): 0 | Animals with ventricular arrhythmia (%) ([4]; dose 0.05 mg/kg): 25% | Number of animals with ventricular arrhythmia ([4]; dose 0.05 mg/kg): 2 | Time of occurrence of arrhythmia ([4]; dose 0.05 mg/kg): 18 ± 2 min | Animals died in group ([4]; dose 0.5 mg/kg): 0 | Animals with ventricular arrhythmia (%) ([4]; dose 0.5 mg/kg): 17% | Number of animals with ventricular arrhythmia ([4]; dose 0.5 mg/kg): 1 | Time of occurrence of arrhythmia ([4]; dose 0.5 mg/kg): 18 min | anti-arrhythmic effect ([4]; dose of 0.05 mg/kg, intravenous): had reliable activity
